Data: patent US9040545B2, “Heterocyclyl pyrazolopyrimidine analogues as selective JAK inhibitors” (Cellzome Limited, priority 2010, dated 2015)

Molecular target: T1, Aurora A (Homo sapiens, UniProt O14965)
T1 construct: cell lysates from Jurkat cells (ATCC TIB-152) used; endogenous in cells; host or cells: Jurkat cells (ATCC TIB-152), treated with pervanadate
T1 sequence (O14965 1-403): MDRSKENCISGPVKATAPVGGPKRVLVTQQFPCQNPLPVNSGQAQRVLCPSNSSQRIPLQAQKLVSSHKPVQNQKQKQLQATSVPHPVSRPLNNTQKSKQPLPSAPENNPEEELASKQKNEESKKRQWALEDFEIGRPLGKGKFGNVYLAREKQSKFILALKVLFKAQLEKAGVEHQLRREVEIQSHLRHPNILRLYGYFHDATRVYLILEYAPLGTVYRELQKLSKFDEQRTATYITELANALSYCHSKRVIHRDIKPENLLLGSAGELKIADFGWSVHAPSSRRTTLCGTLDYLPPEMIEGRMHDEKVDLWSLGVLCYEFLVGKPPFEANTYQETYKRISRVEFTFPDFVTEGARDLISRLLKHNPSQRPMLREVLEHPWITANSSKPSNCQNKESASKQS
Experiment: Kinobeads assay, Aurora A
Assay type: binding
Conditions: for IC50: lysate of pervanadate-treated Jurkat cells, read-out: Inhibition values (IC50) Aur A
Experimental: The compounds of the present invention as described in the previous examples were tested in a Kinobeads™ assay as described for ZAP-70 (WO-A 2007/137867). Briefly, test compounds (at various concentrations) and the affinity matrix with the immobilized aminopyrido-pyrimidine ligand 24 were added to cell lysate aliquots and allowed to bind to the proteins in the lysate sample. After the incubation time the beads with captured proteins were separated from the lysate. Bound proteins were then eluted and the presence of JAK2 and JAK3 was detected and quantified using specific antibodies in a dot blot procedure and the Odyssey infrared detection system. Dose response curves for individual kinases were generated and IC50 values calculated. Kinobeads™ assays for ZAP-70 (WO-A 2007/137867) and for kinase selectivity profiling (WO-A 2006/134056) have been previously described.
The affinity matrix was washed two times with 15 mL of 1×DP buffer containing 0.2% NP40 (IGEPAL® CA-630, Sigma, #I3021) and then resuspended in 1×DP buffer containing 0.2% NP40 (3% beads slurry).
5×DP buffer 250 mM Tris-HCl pH 7.4, 25% Glycerol, 7.5 mM MgCl2, 750 mM NaCl, 5 mM Na3VO4; filter the 5×DP buffer through a 0.22 μm filter and store in aliquots at −80° C. The 5×DP buffer is diluted with H2O to 1×DP buffer containing 1 mM DTT and 25 mM NaF.
Stock solutions of test compounds were prepared in DMSO. In a 96 well plate 30 μL solution of diluted test compounds at 5 mM in DMSO were prepared. Starting with this solution a 1:3 dilution series (9 steps) was prepared. For control experiments (no test compound) a buffer containing 2% DMSO was used.
Cell lysate (approximately 50 mg protein per plate) was thawed in a water bath at room temperature and then stored on ice. To the thawed cell lysate 1×DP 0.8% NP40 buffer containing protease inhibitors (1 tablet for 25 mL buffer; EDTA-free protease inhibitor cocktail; Roche Diagnostics 1873580) was added in order to reach a final protein concentration of 10 mg/mL total protein. The diluted cell lysate was stored on ice. Mixed Molt4/Ramos lysate was prepared by combining one volume of Molt4 lysate and two volumes of Ramos lysate (ratio 1:2).
To a 96 well filter plate (Multiscreen HTS, BV Filter Plates, Millipore #MSBVN1250) were added per well: 100 μL affinity matrix (3% beads slurry), 3 μL of compound solution, and 50 μL of diluted lysate. Plates were sealed and incubated for 3 hours in a cold room on a plate shaker (Heidolph tiramax 1000) at 750 rpm. Afterwards the plate was washed 3 times with 230 μL washing buffer (1×DP 0.4% NP40). The filter plate was placed on top of a collection 1 plate (Greiner bio-one, PP-microplate 96 well V-shape, 65120) and the beads were then eluted with 20 μL of sample buffer (100 mM Tris, pH 7.4, 4% SDS, 0.00025% bromophenol blue, 20% glycerol, 50 mM DTT). The eluate was frozen quickly at −80° C. and stored at −20° C.
The kinases in the eluates were detected and quantified by spotting on nitrocellulose membranes and using a first antibody directed against the kinase of interest and a fluorescently labelled secondary antibody (anti-rabbit IRDye™ antibody 800 (Licor, #926-32211). The Odyssey Infrared Imaging system from LI-COR Biosciences (Lincoln, Nebr., USA) was operated according to instructions provided by the manufacturer (Schutz-Geschwendener et al, 2004. Quantitative, two-color Western blot detection with infrared fluorescence. Published May 2004 by LI-COR Biosciences, www.licor.com).
After spotting of the eluates the nitrocellulose membrane (BioTrace NT; PALL, #BTNT30R) was first blocked by incubation with Odyssey blocking buffer (LICOR, 927-40000) for 1 hour at room temperature. Blocked membranes were then incubated for 16 hours at the temperature shown in Table 5 with the first antibody diluted in Odyssey blocking buffer (LICOR #927-40000). Afterwards the membrane was washed twice for 10 minutes with PBS buffer containing 0.2% Tween 20 at room temperature. […]

SMILES	JAK3/AurA Fold Selectivity	IC50 [nM]
O=C(CCn1cc(Nc2ncc3cnn(Cc4cccc(N5CCOCC5)c4)c3n2)cn1)NC1CC1 [Example 35, N-Cyclopropyl-3-(4-((1-(3-morpholinobenzyl)-1H-pyrazolo[3,4-d]pyrimidin-6-yl)amino)-1H-pyrazol-1-yl)propanamide]	10-50 Fold	100 to 1000
Cn1cc(Nc2ncc3cnn(Cc4cccc(N5CCNCC5=O)c4)c3n2)cn1 [Example 36, 1-(3-((6-((1-Methyl-1H-pyrazol-4-yl)amino)-1H-pyrazolo[3,4-d]pyrimidin-1-yl)methyl)phenyl)piperazin-2-one]	10-50 Fold	100 to 1000
Cn1cc(Nc2ncc3cnn(Cc4cc(N5CCOCC5)cc(F)c4F)c3n2)cn1 [Example 37, 1-(2,3-Difluoro-5-morpholinobenzyl)-N-(1-methyl-1H-pyrazol-4-yl)-1H-pyrazolo[3,4-d]pyrimidin-6-amine]	10-50 Fold	1000 to 10000
Cn1cc(Nc2ncc3cnn(Cc4c(F)ccc(N5CCOCC5)c4F)c3n2)cn1 [Example 38, 1-(2,6-Difluoro-3-morpholinobenzyl)-N-(1-methyl-1H-pyrazol-4-yl)-1H-pyrazolo[3,4-d]pyrimidin-6-amine]	10-50 Fold	100 to 1000
OCCn1cc(Nc2ncc3cnn(Cc4cccc(N5CCOCC5)c4F)c3n2)cn1 [Example 39, 2-(4-((1-(2-Fluoro-3-morpholinobenzyl)-1H-pyrazolo[3,4-d]pyrimidin-6-yl)amino)-1H-pyrazol-1-yl)ethanol]	10-50 Fold	100 to 1000
Cn1cc(Nc2ncc3cnn(Cc4cccc(N5CCOCC5=O)c4F)c3n2)cn1 [Example 40, 4-(2-Fluoro-3-((6-((1-methyl-1H-pyrazol-4-yl)amino)-1H-pyrazolo[3,4-d]pyrimidin-1-yl)methyl)phenyl)morpholin-3-one]	10-50 Fold	100 to 1000
CNCC1(Cn2cc(Nc3ncc4cnn(Cc5cccc(N6CCOCC6)c5)c4n3)cn2)COC1 [Example 41, N-(1-((3-((Methylamino)methyl)oxetan-3-yl)methyl)-1H-pyrazol-4-yl)-1-(3-morpholinobenzyl)-1H-pyrazolo[3,4-d]pyrimidin-6-amine]	10-50 Fold	1000 to 10000
Cn1cc(Nc2ncc3cnn(Cc4cccc(N5CC6(COC6)C5)c4)c3n2)cn1 [Example 89, 1-(3-(2-oxa-6-azaspiro[3.3]heptan-6-yl)benzyl)-N-(1-methyl-1H-pyrazol-4-yl)-1H-pyrazolo[3,4-d]pyrimidin-6-amine]	10-50 Fold	100 to 1000
Cn1cc(Nc2ncc3cnn(Cc4cc(F)cc(N5CC6(COC6)C5)c4)c3n2)cn1 [Example 90, 1-(3-fluoro-5-(2-oxa-6-azaspiro[3.3]heptan-6-yl)benzyl)-N-(1-methyl-1H-pyrazol-4-yl)-1H-pyrazolo[3,4-d]pyrimidin-6-amine]	10-50 Fold	≥ 10000
Cn1cc(Nc2ncc3cnn(Cc4cccc(N5CC6(COC6)C5)c4F)c3n2)cn1 [Example 91, 1-(2-fluoro-3-(2-oxa-6-azaspiro[3.3]heptan-6-yl)benzyl)-N-(1-methyl-1H-pyrazol-4-yl)-1H-pyrazolo[3,4-d]pyrimidin-6-amine]	–	≥ 10000

Next, values leading:

JAK3/AurA Fold Selectivity	IC50 [nM]	SMILES
10-50 Fold	100 to 1000	Cn1cc(Nc2ncc3cnn(Cc4cc(F)cc(N5CCNCC5)c4)c3n2)cn1 [Example 92, 1-(3-fluoro-5-(piperazin-1-yl)benzyl)-N-(1-methyl-1H-pyrazol-4-yl)-1H-pyrazolo[3,4-d]pyrimidin-6-amine]
10-50 Fold	100 to 1000	OCCn1cc(Nc2ncc3cnn(Cc4cc(F)cc(N5CCNCC5)c4)c3n2)cn1 [Example 93, 2-(4-((1-(3-fluoro-5-(piperazin-1-yl)benzyl)-1H-pyrazolo[3,4-d]pyrimidin-6-yl)amino)-1H-pyrazol-1-yl)ethanol]
>50 Fold	1000 to 10000	Fc1cc(N2CCOCC2)c(F)c(Cn2ncc3cnc(Nc4cnn(CC5CCNC5)c4)nc32)c1F (stereo not drawn) [Example 94, N-(1-(pyrrolidin-3-ylmethyl)-1H-pyrazol-4-yl)-1-(2,3,6-trifluoro-5-morpholinobenzyl)-1H-pyrazolo[3,4-d]pyrimidin-6-amine]
10-50 Fold	100 to 1000	Cn1cc(Nc2ncc3cnn(Cc4cc(F)cc(N5CCNCC5)c4F)c3n2)cn1 [Example 95, 1-(2,5-difluoro-3-(piperazin-1-yl)benzyl)-N-(1-methyl-1H-pyrazol-4-yl)-1H-pyrazolo[3,4-d]pyrimidin-6-amine]
>50 Fold	≥ 10000	OCCn1cc(Nc2ncc3cnn(Cc4cc(F)cc(N5CCNCC5)c4F)c3n2)cn1 [Example 96, 2-(4-((1-(2,5-difluoro-3-(piperazin-1-yl)benzyl)-1H-pyrazolo[3,4-d]pyrimidin-6-yl)amino)-1H-pyrazol-1-yl)ethanol]
10-50 Fold	100 to 1000	CN(C)CC(F)Cn1cc(Nc2ncc3cnn(Cc4cc(F)cc(N5CCOCC5=O)c4)c3n2)cn1 (stereo not drawn) [Example 97, 4-(3-((6-((1-(3-(dimethylamino)-2-fluoropropyl)-1H-pyrazol-4-yl)amino)-1H-pyrazolo[3,4-d]pyrimidin-1-yl)methyl)-5-fluorophenyl)morpholin-3-one]
3-10 Fold	< 100	Cn1cc(Nc2ncc3cnn(Cc4cc(C(=O)N5CCOCC5)cc(F)c4F)c3n2)cn1 [Example 98, (3,4-difluoro-5-((6-((1-methyl-1H-pyrazol-4-yl)amino)-1H-pyrazolo[3,4-d]pyrimidin-1-yl)methyl)phenyl)(morpholino)methanone]
3-10 Fold	< 100	CNCCCn1cc(Nc2ncc3cnn(Cc4cc(F)cc(N5CCOCC5=O)c4)c3n2)cn1 [Example 99, 4-(3-fluoro-5-((6-((1-(3-(methylamino)propyl)-1H-pyrazol-4-yl)amino)-1H-pyrazolo[3,4-d]pyrimidin-1-yl)methyl)phenyl)morpholin-3-one]
3-10 Fold	100 to 1000	Cn1cc(Nc2ncc3cnn(Cc4cccc(N5CCN(S(C)(=O)=O)CC5)c4)c3n2)cn1 [Example 100, N-(1-methyl-1H-pyrazol-4-yl)-1-(3-(4-(methylsulfonyl)piperazin-1-yl)benzyl)-1H-pyrazolo[3,4-d]pyrimidin-6-amine]
10-50 Fold	< 100	O=C1COCCN1c1cc(F)cc(Cn2ncc3cnc(Nc4cnn(CC5CCNC5)c4)nc32)c1 (stereo not drawn) [Example 101, 4-(3-fluoro-5-((6-((1-(pyrrolidin-3-ylmethyl)-1H-pyrazol-4-yl)amino)-1H-pyrazolo[3,4-d]pyrimidin-1-yl)methyl)phenyl)morpholin-3-one]
